Source: patent publication US9073830B2 (Hyundai Pharm Co., Ltd., priority 2011, dated 2015)

Key:
mouse 11β-HSD1 = target: T1, mouse 11β-HSD1 (Mus musculus, UniProt P50172); assay: Enzyme activity analysis on mouse 11β-HSD1 (HTRF cortisol, liver microsomes); format: biochemical; details: second value of cell
T1 construct: 100 ug/ml human/mouse liver microsomes; from tissue; host or cells: mouse liver microsomes
How it was run: (§1)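 Cortisol generated by mouse or human liver microsome 11β-HSD1 during 2 h at 37° C., measured by HTRF competition (cryptate anti-cortisol antibody, d2-cortisol, 2 h room temperature) against a cortisol standard curve. IC50 from percent inhibition versus no-compound control.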

human 11β-HSD1 = target: T2, human 11β-HSD1 (Homo sapiens, UniProt P28845); assay: Enzyme activity analysis on human 11β-HSD1 (HTRF cortisol, liver microsomes); format: biochemical; details: first value of cell
T2 construct: 100 ug/ml human/mouse liver microsomes; from tissue; host or cells: human liver microsomes
How it was run: as §1

T1 sequence (P50172 whole entry): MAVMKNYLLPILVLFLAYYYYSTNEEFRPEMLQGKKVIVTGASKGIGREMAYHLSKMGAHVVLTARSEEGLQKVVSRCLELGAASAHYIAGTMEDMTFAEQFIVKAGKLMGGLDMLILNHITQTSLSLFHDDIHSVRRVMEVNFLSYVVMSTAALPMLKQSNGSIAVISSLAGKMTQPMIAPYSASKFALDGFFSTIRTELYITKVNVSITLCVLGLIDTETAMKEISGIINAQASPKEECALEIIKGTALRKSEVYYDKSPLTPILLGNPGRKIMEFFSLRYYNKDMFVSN
T2 sequence (P28845 whole entry): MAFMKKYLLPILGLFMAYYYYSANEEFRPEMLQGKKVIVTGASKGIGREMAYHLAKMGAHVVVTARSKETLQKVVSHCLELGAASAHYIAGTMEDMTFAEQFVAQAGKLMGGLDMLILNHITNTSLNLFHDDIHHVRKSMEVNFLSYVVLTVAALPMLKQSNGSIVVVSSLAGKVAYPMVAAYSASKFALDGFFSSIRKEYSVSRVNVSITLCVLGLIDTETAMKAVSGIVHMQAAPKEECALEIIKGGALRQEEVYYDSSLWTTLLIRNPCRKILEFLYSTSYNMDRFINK

| Structure (SMILES) | IC50 (mouse 11β-HSD1) [µM] | IC50 (human 11β-HSD1) [µM] |
| --- | --- | --- |
| NC(=O)C12CC3CC(C1)C(NC(=O)C1(NS(=O)(=O)c4cc(F)ccc4F)CCC1)C(C3)C2 (stereo not drawn) [compound 163, N-4-(1-(2,5-difluorophenylsulfonamido)cyclobutanecarboxyamido)adamantane-1-carboxyamide] | 0.443 | 0.373 |
| Cc1c(Cl)cccc1S(=O)(=O)NC1(C(=O)NC2C3CC4CC2CC(C(N)=O)(C4)C3)CCCC1 (stereo not drawn) [compound 167, N-4-(1-(3-chloro-2-methylphenylsulfonamido)cyclopentanecarboxyamido)adamantane-1-carboxyamide] | 0.016 | 0.008 |
| NC(=O)C12CC3CC(C1)C(NC(=O)C1(NS(=O)(=O)c4cccc5cccnc45)CCCC1)C(C3)C2 (stereo not drawn) [compound 168, N-4-(1-(quinoline-8-sulfonamido)cyclopentanecarboxyamido)adamantane-1-carboxyamide] | 0.007 | 0.022 |
| NC(=O)C12CC3CC(C1)C(NC(=O)C1(NS(=O)(=O)c4ccccc4Cl)CCCC1)C(C3)C2 (stereo not drawn) [compound 170, N-4-(1-(2-chlorophenylsulfonamido)cyclopentanecarboxyamido)adamantane-1-carboxyamide] | 0.012 | 0.011 |
| NC(=O)C12CC3CC(C1)C(NC(=O)C1(NS(=O)(=O)c4ccccc4C(F)(F)F)CCCC1)C(C3)C2 (stereo not drawn) [compound 172, N-4-(1-(2-trifluoromethylphenylsulfonamido)cyclopentanecarboxyamido)adamantane-1-carboxyamide] | 0.053 | 0.016 |
| NC(=O)C12CC3CC(C1)C(NC(=O)C1(NS(=O)(=O)c4ccccc4[N+](=O)[O-])CCCC1)C(C3)C2 (stereo not drawn) [compound 173, N-4-(1-(2-nitrophenylsulfonamido)cyclopentanecarboxyamido)adamantane-1-carboxyamide] | 0.038 | 0.014 |
| NC(=O)C12CC3CC(C1)C(NC(=O)C1(NS(=O)(=O)c4ccccc4Br)CCCC1)C(C3)C2 (stereo not drawn) [compound 174, N-4-(1-(2-bromophenylsulfonamido)cyclopentanecarboxyamido)adamantane-1-carboxyamide] | 0.015 | 0.017 |
| NC(=O)C12CC3CC(C1)C(NC(=O)C1(NS(=O)(=O)c4c(Cl)cccc4Cl)CCCC1)C(C3)C2 (stereo not drawn) [compound 175, N-4-(1-(2,6-dichlorophenylsulfonamido)cyclopentanecarboxyamido)adamantane-1-carboxyamide] | 0.003 | 0.006 |
| NC(=O)C12CC3CC(C1)C(NC(=O)C1(NS(=O)(=O)c4cccc(Cl)c4Cl)CCCC1)C(C3)C2 (stereo not drawn) [compound 176, N-4-(1-(2,3-dichlorophenylsulfonamido)cyclopentanecarboxyamido)adamantane-1-carboxyamide] | 0.007 | 0.009 |
| NC(=O)C12CC3CC(C1)C(NC(=O)C1(NS(=O)(=O)c4cccc(Cl)c4F)CCCC1)C(C3)C2 (stereo not drawn) [compound 177, N-4-(1-(2-fluoro-3-chlorophenylsulfonamido)cyclopentanecarboxyamido)adamantane-1-carboxyamide] | 0.006 | 0.009 |
| Cc1c(Cl)cccc1S(=O)(=O)NC1(C(=O)NC2C3CC4CC2CC(C(N)=O)(C4)C3)CCCCC1 (stereo not drawn) [compound 180, N-4-(1-(3-chloro-2-methylphenylsulfonamido)cyclohexanecarboxyamido)adamantane-1-carboxyamide] | 0.328 | 0.023 |
| NC(=O)C12CC3CC(C1)C(NC(=O)C1(NS(=O)(=O)c4ccccc4C(F)(F)F)CCCCC1)C(C3)C2 (stereo not drawn) [compound 181, N-4-(1-(2-trifluoromethylphenylsulfonamido)cyclohexanecarboxyamido)adamantane-1-carboxyamide] | 0.132 | 0.019 |
| NC(=O)C12CC3CC(C1)C(NC(=O)C1(NS(=O)(=O)c4cccc(Cl)c4Cl)CCCCC1)C(C3)C2 (stereo not drawn) [compound 183, N-4-(1-(2,3-dichlorophenylsulfonamido)cyclohexanecarboxyamido)adamantane-1-carboxyamide] | 0.044 | 0.017 |

Now from value to molecule:

| IC50 (mouse 11β-HSD1) [µM] | IC50 (human 11β-HSD1) [µM] | Structure (SMILES) |
| --- | --- | --- |
| 0.113 | 0.018 | NC(=O)C12CC3CC(C1)C(NC(=O)C1(NS(=O)(=O)c4ccccc4OC(F)(F)F)CCC1)C(C3)C2 (stereo not drawn) [compound 160, N-4-(1-(2-trifluoromethoxyphenylsulfonamido)cyclobutanecarboxyamido)adamantane-1-carboxyamide] |
| 0.428 | 0.052 | NC(=O)C12CC3CC(C1)C(NC(=O)C1(NS(=O)(=O)c4cc(Cl)c(Cl)cc4Cl)CCC1)C(C3)C2 (stereo not drawn) [compound 161, N-4-(1-(2,4,5-trichlorophenylsulfonamido)cyclobutanecarboxyamido)adamantane-1-carboxyamide] |
| 0.453 | 0.04 | NC(=O)C12CC3CC(C1)C(NC(=O)C1(NS(=O)(=O)c4ccc(Br)cc4Cl)CCC1)C(C3)C2 (stereo not drawn) [compound 162, N-4-(1-(2-chloro-4-bromophenylsulfonamido)cyclobutanecarboxyamido)adamantane-1-carboxyamide] |
| 0.298 | 0.058 | Cc1ccc(F)c(S(=O)(=O)NC2(C(=O)NC3C4CC5CC3CC(C(N)=O)(C5)C4)CCC2)c1 (stereo not drawn) [compound 164, N-4-(1-(2-fluoro-5-methylphenylsulfonamido)cyclobutanecarboxyamido)adamantane-1-carboxyamide] |
| 0.29 | 0.101 | Cc1ccc(F)cc1S(=O)(=O)NC1(C(=O)NC2C3CC4CC2CC(C(N)=O)(C4)C3)CCC1 (stereo not drawn) [compound 165, N-4-(1-(2-methyl-5-fluorophenylsulfonamido)cyclobutanecarboxyamido)adamantane-1-carboxyamide] |
| 0.559 | 0.724 | NC(=O)C12CC3CC(C1)C(NC(=O)C1(NS(=O)(=O)c4ccc(OC(F)F)cc4)CCC1)C(C3)C2 (stereo not drawn) [compound 166, N-4-(1-(4-(difluoromethoxy)phenylsulfonamido)cyclobutanecarboxyamido)adamantane-1-carboxyamide] |
| 0.049 | 0.03 | Cc1ccccc1S(=O)(=O)NC1(C(=O)NC2C3CC4CC2CC(C(N)=O)(C4)C3)CCCC1 (stereo not drawn) [compound 169, N-4-(1-(2-methylphenylsulfonamido)cyclopentanecarboxyamido)adamantane-1-carboxyamide] |
| 0.12 | 0.038 | NC(=O)C12CC3CC(C1)C(NC(=O)C1(NS(=O)(=O)c4ccccc4)CCCC1)C(C3)C2 (stereo not drawn) [compound 171, N-4-(1-(phenylsulfonamido)cyclopentanecarboxyamido)adamantane-1-carboxyamide] |
| 0.048 | 0.009 | NC(=O)C12CC3CC(C1)C(NC(=O)C1(NS(=O)(=O)c4ccccc4Br)CCCCC1)C(C3)C2 (stereo not drawn) [compound 178, N-4-(1-(2-bromophenylsulfonamido)cyclohexanecarboxyamido)adamantane-1-carboxyamide] |
| 0.037 | 0.008 | NC(=O)C12CC3CC(C1)C(NC(=O)C1(NS(=O)(=O)c4ccccc4Cl)CCCCC1)C(C3)C2 (stereo not drawn) [compound 179, N-4-(1-(2-chlorophenylsulfonamido)cyclohexanecarboxyamido)adamantane-1-carboxyamide] |
| 0.006 | 0.018 | NC(=O)C12CC3CC(C1)C(NC(=O)C1(NS(=O)(=O)c4cccc5cccnc45)CCCCC1)C(C3)C2 (stereo not drawn) [compound 182, N-4-(1-(quinoline-8-sulfonamido)cyclohexanecarboxyamido)adamantane-1-carboxyamide] |
